Square brackets hold non-standard residues; d marks the D form. Peptide text beside a SMILES is read from it. * marks the point of attachment. X2 = O=C(NCCN1C(=O)CC(*)C1=O)c1ccc(C(=O)O)c(-c2c3ccc(=O)cc-3oc3cc(O)ccc23)c1; X1 = O=C(O)c1ccc(C(=O)*)cc1-c1c2ccc(=O)cc-2oc2cc(O)ccc12

This note sets out measurements from patent US10994017B2, “Nerve labeling compositions and uses thereof” (Avelas Biosciences, Inc., priority 2016, dated 2021).

Experiment [1] concerns renal nerve. As to the kind of experiment: In vivo fluorescence imaging of renal nerve (FIG. 5). Set-up: species or system mouse. Particulars: FIG. 5, fluorescence versus reflected light images.
The subject of experiment [2] is splanchic nerve. The experiment in a line: In vivo fluorescence imaging of splanchnic nerve (FIG. 4). As to conditions: FIG. 4, mouse, fluorescence versus reflected light images. The text has this:
(§1) Nerves are more clearly visualized utilizing NDM-38.

The test system of experiment [3] is dorsal subcutaneous cervical or thoracic nerves. As to the kind of experiment: In vivo fluorescence imaging of dorsal subcutaneous cervical and thoracic nerves (FIG. 2, FIG. 3). Further details: species or system mouse. As to conditions: FIG. 2 and FIG. 3, fluorescence versus reflected light images.
Description: as §1

Experiment [4] relates to sciatic nerve. As to the kind of experiment: Fluorescence contrast in murine nerves: in vivo imaging of sciatic nerve after intravenous injection. Set-up: species or system mouse. Particulars: for N/B contrast compared to the equivalent NDMs comprising L-amino acids / N/S contrast compared to the equivalent NDMs comprising L-amino acids: retro-inverso (D-amino acids) versus NDM-39, NDM-41. The procedure:
The visualization contrast activity of fluorescent peptides for nerve imaging was assessed using male immunocompetent hairless SKH1-E mice purchased from Charles River (Charles River, Wilmington, Mass. 01887, USA). SKH1-E mice weighing 25-30 grams were housed in group of 4 in individually ventilated IVC disposable cages (Innovive, Inc., San Diego, Calif. 92121, USA) and maintained under controlled environmental conditions (12-h/12-h light/dark cycle; temperature of 64-79F and relative humidity of 30-70%) for at least 5 days before experimental use. Animals had free access to standard laboratory rodent diet (Cat. #2018, Teklad Global 18% Protein Rodent Diet; Harlan Laboratories, Inc. Indianapolis, Ind. 46250, USA) and acidified drinking water throughout the course of study. All experiments were carried out under Institutional Animal Care and Use Committee (IACUC) approved protocol.
On the day of study, each involved mouse was weighed, examined for general condition and restrained using a rotating tail injector (Cat. #RTI, Braintree Scientific, Braintree, Mass. 021585, USA) for intravenous (tail vein) injection of test compound in conscious animal. The test compounds were tested (25-150 nmol in 0.1 mL/mouse) was then injected intravenously in mouse using a 28G1/2 Insulin syringe (Cat. #14-826-79, Becton Dickinson and Company, Franklin Lakes, N.J. 07417, USA). After the intravenous injection, each involved mouse was housed back in its assigned cage and kept under controlled environmental conditions before being examined for fluorescence labeling of the sciatic nerve.
Two hours after the intravenous injection, each involved mouse was terminally anesthetized with a mixture of ketamine HCl (Zetamine™, 100 mg/mL, ANADA 200-055 approved by FDA, NDC-13985-702-10; VETone®, Boise, Id. 83705, USA) and xylazine (Rompun™, 100 mg/mL, NADA-047-956 approved by FDA, Bayer HealthCare, LLC, Animal Health Divison, KS 66201, USA) which consisted of a combination of 100 mg/kg of ketamine with 10 mg/kg of xylazine administered intraperitoneally. The terminally anesthetized mouse was transferred on the piece of cork (4×4 inches, Quartet®, ACCO Brands, Lincolnshire, Ill. 60069, USA) for blunt dissection of sciatic nerve after checking the toe pinch reflex. The sciatic nerve was exposed by removing skin from the dorsal surface of the thigh and blunt dissecting the muscles parallel and posterior to the femur after checking […] (no reflex to toe pinch) in terminally anesthetized mouse. Full body imaging of the terminally anesthetized mouse with both sciatic nerves exposed was then performed using a computerized UVP BioSpectrum® 500 Imaging System fitted with appropriate excitation/emission filters for fluorescein, Cy5, or other dye detection and a VisionWorks® LS Software (UVP-BioSpectrum Imaging System, Upland, Calif., USA) for image acquisition and analysis. After the mouse full body imaging, the exposed and saline moisturized sciatic nerves were subsequently imaged using computerized fluorescence stereomicroscope (SZX 10, Olympus Optical, CO, LTD, Japan) interfaced with PictureFrame™, an image processing application suitable for image acquisition and analysis (Optronics, Goleta, Calif. 93117) or an in-house built Microscope Imaging System interfaced with Spot Software 5.0 (SPOT Imaging Solutions, Sterling Heights, Mich. 48314) for image acquisition and analysis. All above-mentioned Imaging Systems were equipped with appropriate excitation/emission filters for fluorescein, Cy5, or other dye detection. Following the imaging session, all captured images of fluorescently labeled sciatic nerves were examined and analyzed using the image processing program Image J to generate quantitative fluorescence data. For each involved mouse, fluorescence intensity of each examined sciatic nerve was acquired by drawing an area on the surface of the exposed sciatic nerve using Image J features and capabilities. […]

Turning to `CC(=O)N[C@H](CCCCNC(=O)c1ccc(C(=O)O)c(-c2c3ccc(=O)cc-3oc3cc(O)ccc23)c1)C(=O)N[C@H](C)C(=O)N[C@H](C)C(=O)N[C@H](C)C(=O)N[C@@H](C(=O)N[C@H](Cc1c[nH]cn1)C(=O)N[C@H](CCC(=O)O)C(N)=O)[C@H](C)O` [NDM-38, Ac-[D-Lys(6FAM)]-(D-Ala)-(D-Ala)-(D-Ala)-(D-Thr)-(D-His)-(D-Glu)-NH2] (Ac-[dK](X1)[dA][dA][dA][dT][dH][dE]-NH2), in experiment [1], the “fluorescence contrast (nerve/background) of mouse renal nerve” value is listed as “very high fluorescence contrast”. In experiment [2], the “fluorescence contrast (nerve/background) of splanchic nerve” value was “very high fluorescence contrast”. The “fluorescence contrast (nerve/background) of mouse dorsal subcutaneous cervical or thoracic nerves” value in experiment [3] was “very high fluorescence contrast”. Further, in experiment [4] (alanine linker versus NDM-44), the “N/B contrast relative to NDMs with glycine linkers” value is given as “higher” and the “N/S contrast relative to NDMs with glycine linkers” value was “higher”. Further, in experiment [4], the “N/B contrast compared to the equivalent NDMs comprising L-amino acids” value is reported as “substantially higher” and the “N/S contrast compared to the equivalent NDMs comprising L-amino acids” value is recorded as “substantially higher”.

Regarding `CC(=O)N[C@H](CSC1CC(=O)N(CCNC(=O)c2ccc(C(=O)O)c(-c3c4ccc(=O)cc-4oc4cc(O)ccc34)c2)C1=O)C(=O)N[C@H](C)C(=O)N[C@H](C)C(=O)N[C@H](C)C(=O)N[C@@H](C(=O)N[C@H](Cc1c[nH]cn1)C(=O)N[C@H](CCC(=O)O)C(N)=O)[C@H](C)O` (stereo partly drawn) [NDM-40, Ac-[D-Cys(6FAM)]-(D-Ala)-(D-Ala)-(D-Ala)-(D-Thr)-(D-His)-(D-Glu)-NH2] (Ac-[dC](X2)[dA][dA][dA][dT][dH][dE]-NH2), the “fluorescence contrast (nerve/background) of mouse sciatic nerve” value in experiment [4] (FIG. 1, fluorescence versus reflected light images) is given as “very high fluorescence contrast”. For the same molecule, in experiment [4], the “N/B contrast compared to the equivalent NDMs comprising L-amino acids” value is “substantially higher” and the “N/S contrast compared to the equivalent NDMs comprising L-amino acids” value is “substantially higher”.
